The record followed here is patent US9073955B2, “2-amino-4-arylthiazole compounds as TRPA1 antagonists” (Glenmark Pharmaceuticals, S.A., priority 2010, dated 2015).

Data set [1] is described as follows: Determination of solubility by shake flask method (water). It counts as physicochemical. The conditions noted are these: for solubility at 15 min: thermodynamic from solid, ‘P’ substituted thiazole compound, water, 37° C., shake flask. As to the method: About 1 mg of test substance was taken in test tube and water was added in the increment of 1 ml with shaking after addition of media (water). Solubility was observed visually also. After completion of addition of 10 ml volume of media (water), test tube containing sample solution were put on a mechanical shaker set at 37° C. and 200 rpm for shaking up to 15 minute. After shaking, content of flask was filtered through 0.45μ filter. This filtered solution is analyzed using HPLC method for quantification. A sample solution of 1 mg in 10 ml of DMSO is used as reference standard for quantifying dissolved test substance in media. Solubility is expressed as mcg/ml.
Aqueous solubility of ‘P’ substituted thiazole compounds and the parent thiazole compounds were determined using the above described procedure and the results are given Table 3.

In the next data set the target is T1, Human TRPA1 (Homo sapiens, UniProt O75762).
T1 construct: expressed in transfected cells; host or cells: CHO cells (grown with 400 μg/ml G-418)
Put plainly: 45Calcium uptake assay: inhibition of AITC induced cellular uptake of radioactive calcium. It counts as cell-based. The following applies: human TRPA1 expressing CHO cells, AITC 30 μM; for inhibition at 1 µM: read-out: Percentage inhibition at 1.0 μM; for inhibition at 10 µM: read-out: Percentage inhibition at 10.0 μM. As to the method: The illustrative examples of the present invention were screened for TRPA1 activity according to a modified procedure described in (a) Tóth, A. et al. Life Sciences, 2003, 73, 487-498. ([…]. et al, Proc. Natl. Acad. Sci. U.S.A., 2007, 104, 13525-13530. The screening of the compounds can be carried out by other methods and procedures known to persons skilled in the art. Screening for TRPA1 Antagonist Using the ^45Calcium Uptake Assay: The inhibition of TRPA1 receptor activation was measured as inhibition of allyl isothiocyanate (AITC) induced cellular uptake of radioactive calcium. Test compounds were dissolved in 100% DMSO to prepare 10 mM stock and then diluted using plain medium with 0.1% BSA and 1.8 mM CaCl2 to get the desired concentration. The final concentration of DMSO in the reaction was 0.5% (v/v). Human TRPA1 expressing CHO cells were grown in F-12 DMEM medium with 10% FBS, 1% penicillin-streptomycin solution, and 400 μg/ml of G-418. Cells were seeded 24 h prior to the assay in 96 well plates so as to get 50,000 cells per well on the day of experiment. Cells were treated with the test compounds for 10 minutes followed by the addition of AITC at a final concentration of 30 μM and 5 μCi/ml^45Ca^+2 for 3 minutes. Cells were washed and lysed using a buffer containing 1% Triton X-100, 0.1% deoxycholate and 0.1% SDS. Radioactivity in the lysate was measured in a Packard TopCount after addition of liquid scintillant. (Toth et al, Life Sciences (2003) 73, 487-498; McNamara C R et al, Proceedings of the National Academy of Sciences, (2007) 104, 13525-13530). Concentration response curves were plotted as a % of maximal response obtained in the absence of test antagonist. IC50 values can be calculated from concentration response curve by nonlinear regression analysis using GraphPad PRISM software.

Data set [2] is described as follows: Rat pharmacokinetic (PK) study, oral suspension. It counts as in vivo, male rats (Sprague Dawley). The conditions noted are these: for pharmacokinetic properties (Cmax and AUC) compared to the parent thiazole acetamide: compared with the corresponding parent compound of formula (1). As to the method:
PK values were obtained in male rats (strain: Sprague Dawley) orally dosed with the compounds of the present invention as suspension. Accurately weighed quantity of compound of present invention (corrected for purity and salt factor) was transferred into a clean and dry mortar. To this mortar was added 2.5 μL/mL Tween 80 and triturated until the compound gets properly wet. To this, 0.5% (w/v) methyl cellulose suspension was added in geometric proportions and triturated thoroughly to form a uniform suspension.
Animals were provided with food and water ad libitum through out the study period. Animals were dosed orally with the compounds using a gavage needle at 10 mL/kg body weight. Blood samples (250 μl approx.) were collected from male Sprague Dawley retro orbital sinus using rat capillary tubes into 0.6 mL eppendorf tubes with tripotassium ethylenediaminetetraacetic acid (K3 EDTA) (25 μL) as anticoagulant. Samples were collected at 0.5, 1.0, 2.0, 4.0, 6.0, 8.0, 12.0 and 24.0 hr post dosing for compounds. Then samples were centrifuged immediately at 1000 g for 10 min. at 4° C. Plasma samples were separated and stored at −70° C. till analysis. Samples were processed and analyzed using LCMS/MS. Pharmacokinetic parameters were calculated using Winonlin software. Table 4 provides the pK values (Cmax, AUC) obtained in these studies.

pIC50: −log10 of the molar value. Read-outs that look alike come from different tables or passages of the source.

T1 sequence (O75762 whole entry): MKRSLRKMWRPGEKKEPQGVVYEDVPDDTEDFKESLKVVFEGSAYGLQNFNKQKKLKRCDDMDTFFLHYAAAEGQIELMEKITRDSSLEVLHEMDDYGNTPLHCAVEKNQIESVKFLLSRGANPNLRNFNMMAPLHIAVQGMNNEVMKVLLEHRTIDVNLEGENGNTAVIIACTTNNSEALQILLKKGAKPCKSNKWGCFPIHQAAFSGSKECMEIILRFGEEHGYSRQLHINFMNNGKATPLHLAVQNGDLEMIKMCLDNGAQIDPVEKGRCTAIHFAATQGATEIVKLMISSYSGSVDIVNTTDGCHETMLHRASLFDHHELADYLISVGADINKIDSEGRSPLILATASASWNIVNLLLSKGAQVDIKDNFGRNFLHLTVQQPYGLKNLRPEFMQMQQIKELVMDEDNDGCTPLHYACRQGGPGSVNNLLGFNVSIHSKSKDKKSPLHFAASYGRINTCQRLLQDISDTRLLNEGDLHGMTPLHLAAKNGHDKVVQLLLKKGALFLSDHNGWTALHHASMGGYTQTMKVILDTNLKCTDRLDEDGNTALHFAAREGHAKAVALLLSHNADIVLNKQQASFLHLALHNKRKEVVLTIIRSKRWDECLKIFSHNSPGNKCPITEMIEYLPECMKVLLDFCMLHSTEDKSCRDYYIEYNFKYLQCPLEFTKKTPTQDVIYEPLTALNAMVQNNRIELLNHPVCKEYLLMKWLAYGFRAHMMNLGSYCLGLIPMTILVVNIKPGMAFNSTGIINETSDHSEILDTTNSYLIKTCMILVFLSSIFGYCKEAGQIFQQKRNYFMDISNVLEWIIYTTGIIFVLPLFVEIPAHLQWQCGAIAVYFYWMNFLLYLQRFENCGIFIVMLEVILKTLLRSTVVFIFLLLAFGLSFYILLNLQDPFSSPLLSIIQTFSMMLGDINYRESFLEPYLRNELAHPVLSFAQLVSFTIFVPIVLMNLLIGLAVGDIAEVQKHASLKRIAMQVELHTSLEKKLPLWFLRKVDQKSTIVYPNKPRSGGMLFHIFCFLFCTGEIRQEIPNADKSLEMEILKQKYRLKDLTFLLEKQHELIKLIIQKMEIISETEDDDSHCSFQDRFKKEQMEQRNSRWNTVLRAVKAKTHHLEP

On to `Cn1c(=O)c2c(CC(=O)/N=c3\scc(-c4ccc(F)c(C(F)(F)F)c4F)n3COP(=O)([O-])[O-])csc2n(C)c1=O.[Na+].[Na+]` [Example 14, Disodium[4-[2,4-difluoro-3-(trifluoromethyl)phenyl]-2-{[(1,3-dimethyl-2,4-dioxo-1,2,3,4-tetrahydrothieno[2,3-d]pyrimidin-5-yl)acetyl]imino}-1,3-thiazol-3(2H)-yl]methyl phosphate], for which the solubility (in general, the dissolved amount per volume that the medium holds) at 15 min in data set [1] was over 1200 µg/mL. In addition, the pIC50 (commonly −log10 of the IC50, conventionally taken in molar units) on Human TRPA1 was 6.30 to 7.00.

In turn, `Cn1nc2c(c1CC(=O)N=c1scc(-c3ccc(F)c(C(F)(F)F)c3F)n1COP(=O)([O-])[O-])c(=O)n(C)c(=O)n2C.[Na+].[Na+]` [Example 29, Disodium-(4-(2,4-difluoro-3-(trifluoromethyl)phenyl)-2-((2-(2,5,7-trimethyl-4,6-dioxo-4,5,6,7-tetrahydro-2H-pyrazolo[3,4-d]pyrimidin-3-yl)acetyl)imino)thiazol-3 (2H)-yl)methyl phosphate] came in with a solubility at 15 min in data set [1] of over 110 µg/mL. Also, on Human TRPA1, the pIC50 was under 6.30.

Turning to `Cc1oc2c(c1CC(=O)/N=c1\scc(-c3ccc(OC(F)(F)F)c(Cl)c3)n1COC(=O)CN)c(=O)n(C)c(=O)n2C.Cl` [Example 20, [4-[3-Chloro-4-(trifluoromethoxy)phenyl]-2-{[(1,3,6-trimethyl-2,4-dioxo-1,2,3,4-tetrahydrofuro[2,3-d]pyrimidin-5-yl)acetyl]imino}-1,3-thiazol-3 (2H)-yl]methyl glycinate hydrochloride], the “pharmacokinetic properties (Cmax and AUC) compared to the parent thiazole acetamide” value in data set [2] is “better pharmacokinetic properties”. In addition, at Human TRPA1, the inhibition (commonly the drop in the measured response relative to a control, in per cent) at 1 µM came out at 96.7%; the inhibition at 10 µM came out at 96.2%; the pIC50 was over 7.00.

Regarding `Cc1oc2c(c1CC(=O)/N=c1\scc(-c3ccc(OC(F)(F)F)c(Cl)c3)n1COC(=O)[C@@H](N)C(C)C)c(=O)n(C)c(=O)n2C.Cl` [Example 21, [4-[3-Chloro-4-(trifluoromethoxy)phenyl]-2-{[(1,3,6-trimethyl-2,4-dioxo-1,2,3,4-tetrahydrofuro[2,3-d]pyrimidin-5-yl)acetyl]imino}-1,3-thiazol-3(2H)-yl]methyl L-valinate hydrochloride], the “pharmacokinetic properties (Cmax and AUC) compared to the parent thiazole acetamide” value in data set [2] is recorded as “better pharmacokinetic properties”. Besides, at Human TRPA1 (CHO), the inhibition at 1 µM is 93.8% and the inhibition at 10 µM was determined as 99.9%. Besides, the pIC50 at Human TRPA1 was over 7.00.

Regarding `Cl.Cn1c(=O)c2c(CC(=O)/N=c3\scc(-c4ccc(F)c(C(F)(F)F)c4F)n3COC(=O)C3CCNCC3)csc2n(C)c1=O` [Example 10, [4-[2,4-Difluoro-3-(trifluoromethyl)phenyl]-2-{[(1,3-dimethyl-2,4-dioxo-1,2,3,4-tetrahydrothieno[2,3-d]pyrimidin-5-yl)acetyl]imino}-1,3-thiazol-3(2H)-yl]methyl piperidine-4-carboxylate hydrochloride], the “aqueous solubility over the parent thiazole acetamide” value in data set [1] (compared with the corresponding parent compound of formula (1)) was “better aqueous solubility”. This compound showed a solubility at 15 min in data set [1] of over 29 µg/mL. Further, at Human TRPA1, the inhibition at 1 µM amounted to 90.5%, the inhibition at 10 µM turned out to be 89.3% and the pIC50 is 6.30 to 7.00.

The compound `Cn1c(=O)c2c(CC(=O)/N=c3\scc(-c4ccc(F)c(C(F)(F)F)c4F)n3COP(=O)(O)O)csc2n(C)c1=O` [Example 13, [4-[2,4-Difluoro-3-(trifluoromethyl)phenyl]-2-{[(1,3-dimethyl-2,4-dioxo-1,2,3,4-tetrahydrothieno[2,3-d]pyrimidin-5-yl)acetyl]imino}-1,3-thiazol-3 (2H)-yl]methyl dihydrogen phosphate] showed a solubility at 15 min in data set [1] of over 2.5 µg/mL. For the same compound, at Human TRPA1 (CHO), the inhibition at 1 µM turned out to be 75.3% and the inhibition at 10 µM was found to be 99.3%. In addition, the negative logarithm of the IC50 (pIC50) at Human TRPA1 was under 6.30.

In the case of `CC[C@H](C)[C@H](N)C(=O)OCn1c(-c2ccc(C(F)(F)F)c(F)c2)cs/c1=N\C(=O)Cc1csc2c1c(=O)n(C)c(=O)n2C.Cl` [Example 6, [2-{[(1,3-Dimethyl-2,4-dioxo-1,2,3,4-tetrahydrothieno[2,3-d]pyrimidin-5-yl)acetyl]imino}-4-[3-fluoro-4-(trifluoromethyl)phenyl]-1,3-thiazol-3(2H)-yl]methyl L-isoleucinate hydrochloride], the “pharmacokinetic properties (Cmax and AUC) compared to the parent thiazole acetamide” value in data set [2] was “better pharmacokinetic properties”. Also, on Human TRPA1, the inhibition at 1 µM is 89.8%, the inhibition at 10 µM is 98.6% and the negative logarithm of the IC50 (pIC50) was 6.30 to 7.00.

As for `Cc1oc2c(c1CC(=O)/N=c1\scc(-c3ccc(OC(F)(F)F)c(Cl)c3)n1COC(=O)C1CCNCC1)c(=O)n(C)c(=O)n2C.Cl` [Example 23, [4-[3-Chloro-4-(trifluoromethoxy)phenyl]-2-{[(1,3,6-trimethyl-2,4-dioxo-1,2,3,4-tetrahydrofuro[2,3-d]pyrimidin-5-yl)acetyl]imino}-1,3-thiazol-3 (2H)-yl]methyl piperidine-4-carboxylate hydrochloride], the “pharmacokinetic properties (Cmax and AUC) compared to the parent thiazole acetamide” value in data set [2] is recorded as “better pharmacokinetic properties”. Also, at Human TRPA1, the inhibition at 1 µM is 91.2%, the inhibition at 10 µM was found to be 97.8% and the pIC50 is 6.30 to 7.00.

Regarding `Cn1c(=O)c2c(CC(=O)Nc3nc(-c4ccc(C(F)(F)F)c(F)c4F)cs3)nsc2n(C)c1=O` [parent of Example 31, N-{4-[2,3-difluoro-4-(trifluoromethyl)phenyl]-1,3-thiazol-2-yl}-2-(5,7-dimethyl-4,6-dioxo-4,5,6,7-tetrahydro[1,2]thiazolo[5,4-d]pyrimidin-3-yl)acetamide, reference compound], in data set [2] (rat, plasma, parent thiazole compound of the example, male Sprague Dawley rats, oral suspension), the Cmax (commonly the peak of the concentration-time curve) was under 250 ng/mL. For the same compound, the AUC(0-t) in data set [2] (rat, plasma, parent thiazole compound of the example, male Sprague Dawley rats, oral suspension, read-out: AUC0-24) was under 2500 ng·h/mL.

Take `CC[C@H](C)[C@H](N)C(=O)OCn1c(-c2ccc(F)c(C(F)(F)F)c2F)cs/c1=N\C(=O)Cc1csc2c1c(=O)n(C)c(=O)n2C.Cl` [Example 7, [4-[2,4-Difluoro-3-(trifluoromethyl)phenyl]-2-{[(1,3-dimethyl-2,4-dioxo-1,2,3,4-tetrahydrothieno[2,3-d]pyrimidin-5-yl)acetyl]imino}-1,3-thiazol-3 (2H)-yl]methyl L-isoleucinate hydrochloride]: the “pharmacokinetic properties (Cmax and AUC) compared to the parent thiazole acetamide” value in data set [2] is on record as “better pharmacokinetic properties”. Also, on Human TRPA1, the inhibition at 1 µM amounted to 98.6%, the inhibition at 10 µM worked out at 99.6% and the pIC50 was over 7.00.

Take `CCc1sc2c(c1CC(=O)/N=c1\scc(-c3ccc(C(F)(F)F)c(F)c3)n1COP(=O)(O)O)c(=O)n(C)c(=O)n2C` [Example 17, [2-{[(6-ethyl-1,3-dimethyl-2,4-dioxo-1,2,3,4-tetrahydrothieno[2,3-d]pyrimidin-5-yl)acetyl]imino}-4-[3-fluoro-4-(trifluoromethyl)phenyl]-1,3-thiazol-3 (2H)-yl]methyl dihydrogen phosphate]: at Human TRPA1, the inhibition at 1 µM turned out to be 20.8%, the inhibition at 10 µM was 96.8% and the pIC50 was under 6.30.
